Test results: PubChem BioAssay (NCI)
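Test compounds were applied to cells in 96-well plates for 48 hours at 5 doses. GI50 marks 50% less growth. TGI marks complete inhibition of growth.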

Columns and labels:
Assay in all cases: DTP human tumour cell line panel, 48 h
786-0 renal = tested on: 786-0 renal
A498 renal = tested on: A498 renal
A549 NSCLC = tested on: A549 NSCLC
ACHN renal = tested on: ACHN renal
BT-549 breast = tested on: BT-549 breast
CAKI-1 renal = tested on: CAKI-1 renal
CCRF-CEM leukemia = tested on: CCRF-CEM leukemia
COLO 205 colon = tested on: COLO 205 colon
DU-145 prostate = tested on: DU-145 prostate
EKVX NSCLC = tested on: EKVX NSCLC
HCC-2998 colon = tested on: HCC-2998 colon
HCT-116 colon = tested on: HCT-116 colon
HCT-15 colon = tested on: HCT-15 colon
HL-60(TB) leukemia = tested on: HL-60(TB) leukemia
HOP-62 NSCLC = tested on: HOP-62 NSCLC
HOP-92 NSCLC = tested on: HOP-92 NSCLC
HS 578T breast = tested on: HS 578T breast
HT29 colon = tested on: HT29 colon
IGROV1 ovarian = tested on: IGROV1 ovarian
K-562 leukemia = tested on: K-562 leukemia
KM12 colon = tested on: KM12 colon
LOX IMVI melanoma = tested on: LOX IMVI melanoma
M14 melanoma = tested on: M14 melanoma
MALME-3M melanoma = tested on: MALME-3M melanoma
MCF7 breast = tested on: MCF7 breast
MDA-MB-231 breast = tested on: MDA-MB-231 breast
MDA-MB-435 = tested on: MDA-MB-435
MOLT-4 leukemia = tested on: MOLT-4 leukemia
NCI-H226 lung = tested on: NCI-H226 lung
NCI-H23 lung = tested on: NCI-H23 lung
NCI-H460 lung = tested on: NCI-H460 lung
NCI-H522 lung = tested on: NCI-H522 lung
NCI/ADR-RES ovarian = tested on: NCI/ADR-RES ovarian
OVCAR-3 ovarian = tested on: OVCAR-3 ovarian
OVCAR-4 ovarian = tested on: OVCAR-4 ovarian
OVCAR-5 ovarian = tested on: OVCAR-5 ovarian
OVCAR-8 ovarian = tested on: OVCAR-8 ovarian
PC-3 prostate = tested on: PC-3 prostate
RPMI-8226 leukemia = tested on: RPMI-8226 leukemia
RXF 393 renal = tested on: RXF 393 renal
SF-268 CNS = tested on: SF-268 CNS
SF-295 CNS = tested on: SF-295 CNS
SF-539 CNS = tested on: SF-539 CNS
SK-MEL-2 melanoma = tested on: SK-MEL-2 melanoma
SK-MEL-28 melanoma = tested on: SK-MEL-28 melanoma
SK-MEL-5 melanoma = tested on: SK-MEL-5 melanoma
SK-OV-3 ovarian = tested on: SK-OV-3 ovarian
SN12C renal = tested on: SN12C renal
SNB-19 CNS = tested on: SNB-19 CNS
SNB-75 CNS = tested on: SNB-75 CNS
SR leukemia = tested on: SR leukemia
SW-620 colon = tested on: SW-620 colon
T-47D breast = tested on: T-47D breast
TK-10 renal = tested on: TK-10 renal
U251 CNS = tested on: U251 CNS
UACC-257 melanoma = tested on: UACC-257 melanoma
UACC-62 melanoma = tested on: UACC-62 melanoma
UO-31 renal = tested on: UO-31 renal

## Cc1nc2sc(C(=O)Nc3ccccc3)c(N)c2cc1C(O)c1ccccc1 (stereo not given)
786-0 renal
  GI50: 553 nM
  TGI: 20000 nM
A498 renal
  GI50: 106 nM
  TGI: 1190 nM
A549 NSCLC
  GI50: 421 nM
  TGI: > 100000 nM
ACHN renal
  GI50: 512 nM
  TGI: > 60800 nM
BT-549 breast
  GI50: 409 nM
  TGI: 24100 nM
CAKI-1 renal
  GI50: 243 nM
  TGI: > 100000 nM
CCRF-CEM leukemia
  GI50: 234 nM
COLO 205 colon
  GI50: 376 nM
  TGI: 4990 nM
DU-145 prostate
  GI50: 362 nM
  TGI: 20900 nM
EKVX NSCLC
  GI50: 597 nM
  TGI: > 100000 nM
HCC-2998 colon
  GI50: 329 nM
  TGI: 6270 nM
HCT-116 colon
  GI50: 255 nM
  TGI: 12800 nM
HCT-15 colon
  GI50: 170 nM
  TGI: > 100000 nM
HL-60(TB) leukemia
  GI50: 234 nM
  TGI: 657 nM
HOP-62 NSCLC
  GI50: 448 nM
  TGI: > 53800 nM
HOP-92 NSCLC
  GI50: 3560 nM
  TGI: 54500 nM
HS 578T breast
  GI50: 325 nM
  TGI: > 35100 nM
HT29 colon
  GI50: 326 nM
  TGI: 17600 nM
IGROV1 ovarian
  GI50: 445 nM
  TGI: 44400 nM
K-562 leukemia
  GI50: 93.3 nM
  TGI: > 59200 nM
KM12 colon
  GI50: 344 nM
  TGI: > 44000 nM
LOX IMVI melanoma
  GI50: 382 nM
  TGI: > 41100 nM
M14 melanoma
  GI50: 182 nM
  TGI: 15200 nM
MALME-3M melanoma
  GI50: 600 nM
  TGI: 34300 nM
MCF7 breast
  GI50: 91 nM
  TGI: 19100 nM
MDA-MB-231 breast
  GI50: 411 nM
  TGI: > 64600 nM
MDA-MB-435
  GI50: 30.8 nM
  TGI: 102 nM
MOLT-4 leukemia
  GI50: 367 nM
  TGI: 25500 nM
NCI-H226 lung
  GI50: 1240 nM
  TGI: > 100000 nM
NCI-H23 lung
  GI50: 664 nM
  TGI: > 100000 nM
NCI-H460 lung
  GI50: 329 nM
  TGI: 1730 nM
NCI-H522 lung
  GI50: 304 nM
  TGI: > 24100 nM
NCI/ADR-RES ovarian
  GI50: 314 nM
  TGI: 28800 nM
OVCAR-3 ovarian
  GI50: 263 nM
  TGI: 3300 nM
OVCAR-4 ovarian
  GI50: 833 nM
  TGI: > 100000 nM
OVCAR-5 ovarian
  GI50: 565 nM
  TGI: > 88100 nM
OVCAR-8 ovarian
  GI50: 408 nM
  TGI: > 100000 nM
PC-3 prostate
  GI50: 427 nM
  TGI: > 71000 nM
RPMI-8226 leukemia
  GI50: 417 nM
  TGI: 11700 nM
RXF 393 renal
  GI50: 270 nM
  TGI: 1880 nM
SF-268 CNS
  GI50: 917 nM
  TGI: > 100000 nM
SF-295 CNS
  GI50: 252 nM
  TGI: 4290 nM
SF-539 CNS
  GI50: 219 nM
  TGI: 638 nM
SK-MEL-2 melanoma
  GI50: 659 nM
  TGI: > 100000 nM
SK-MEL-28 melanoma
  GI50: 10800 nM
  TGI: > 100000 nM
SK-MEL-5 melanoma
  GI50: 338 nM
  TGI: 1630 nM
SK-OV-3 ovarian
  GI50: 523 nM
  TGI: 38500 nM
SN12C renal
  GI50: 460 nM
  TGI: > 100000 nM
SNB-19 CNS
  GI50: 446 nM
  TGI: > 100000 nM
SNB-75 CNS
  GI50: 244 nM
  TGI: > 72800 nM
SR leukemia
  GI50: 43.4 nM
  TGI: > 30500 nM
SW-620 colon
  GI50: 283 nM
  TGI: > 100000 nM
T-47D breast
  GI50: 1270 nM
  TGI: > 31800 nM
TK-10 renal
  GI50: 6030 nM
  TGI: > 100000 nM
U251 CNS
  GI50: 292 nM
  TGI: > 100000 nM
UACC-257 melanoma
  GI50: 4210 nM
  TGI: > 52000 nM
UACC-62 melanoma
  GI50: 382 nM
  TGI: > 48300 nM
UO-31 renal
  GI50: 727 nM
  TGI: > 60900 nM
